Laboratory results reported in patent publication US6525001B1, “Substituted pyrimidine and pyridine herbicides” (Mid-American Commercialization Corporation, priority 1997, dated 2003).

Experiments:
Test in all cases: Test B pre-/postemergence
Assay type in all cases: in vivo
Design in all cases: key: 0 is no effect; 10 is complete control
[1] = tested on: blackgrass (Alopecurus myosuroides)
Method in brief: (§1)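 Scored visually 0 (none) to 10 (complete control) against untreated plants after twelve to sixteen greenhouse days. Test chemicals, formulated in surfactant-containing non-phytotoxic solvent, applied to soil after planting and, separately, onto 1- to 4-leaf (2–18 cm) plants.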

[2] = tested on: broadleaf signalgrass (Brachiaria decumbens)
Method in brief: as §1

[3] = tested on: cocklebur (Xanthium strumarium)
Method in brief: as §1

corn (Zea mays) = tested on: corn (Zea mays)
Method in brief: as §1

[4] = tested on: crabgrass (Digitaria sanguinalis)
Method in brief: as §1

[5] = tested on: giant foxtail (Setaria faberii)
Method in brief: as §1

[6] = tested on: momingglory (Ipomoea hederacea)
Method in brief: as §1

[7] = tested on: pigweed (Amaranthus retroflexus)
Method in brief: as §1

[8] = tested on: purple nutsedge (Cyperus rotundus)
Method in brief: as §1

soybean (Glycine max) = tested on: soybean (Glycine max)
Method in brief: as §1

[9] = tested on: sugar beet (Beta vulgaris)
Method in brief: as §1

[10] = tested on: velvetleaf (Abutilon theophrasti)
Method in brief: as §1

[11] = tested on: wheat (Triticum aestivum)
Method in brief: as §1

wild oat (Avena fatua) = tested on: wild oat (Avena fatua)
Method in brief: as §1

[12] = Preemergence, Rate 62 g/ha, scale of 0 to 10

With `Cc1cnc(-n2ccc(C(F)(F)F)n2)nc1C(=O)c1ccc(C(F)(F)F)cc1` [Compound 65] the “Plant response rating, Blackgrass” value [1, 12] was 0, the “Blackgrass plant response rating” value ([1]; Rate 62 g/ha, Postemergence) was 0 and the “Blackgrass plant response rating” value ([1]; Rate 125 g/ha, Postemergence) was 0. For the same molecule, the “Plant response rating, Blackgrass” value ([1]; Rate 125 g/ha, Preemergence) was 0, the “Plant response rating, Blackgrass” value ([1]; Rate 250 g/ha, Postemergence) was 0 and the “Plant response rating, Blackgrass” value ([1]; Rate 250 g/ha, Preemergence) was 0. The “Plant response rating, Blackgrass” value ([1]; Rate 500 g/ha, Postemergence) was 0, the “Plant response rating, Blackgrass” value ([1]; Rate 500 g/ha, Preemergence) was 0 and the “B. signalgrass plant response rating” value ([2]; Rate 62 g/ha, Postemergence) was 1. The “B. signalgrass plant response rating” value ([2]; Rate 62 g/ha, Preemergence) was 0, the “B. signalgrass plant response rating” value ([2]; Rate 125 g/ha, Postemergence) was 1 and the “Plant response rating, B. signalgrass” value ([2]; Rate 125 g/ha, Preemergence) was 0. For the same molecule, the “Plant response rating, B. signalgrass” value ([2]; Rate 250 g/ha, Postemergence) was 1, the “Plant response rating, B. signalgrass” value ([2]; Rate 250 g/ha, Preemergence) was 1 and the “Plant response rating, B. signalgrass” value ([2]; Rate 500 g/ha, Postemergence) was 1. The “Plant response rating, B. signalgrass” value ([2]; Rate 500 g/ha, Preemergence) was 2, the “Plant response rating, Cocklebur” value [3, 12] was 0 and the “Cocklebur plant response rating” value ([3]; Rate 62 g/ha, Postemergence) was 1. The “Cocklebur plant response rating” value ([3]; Rate 125 g/ha, Postemergence) was 1, the “Plant response rating, Cocklebur” value ([3]; Rate 125 g/ha, Preemergence) was 0 and the “Plant response rating, Cocklebur” value ([3]; Rate 250 g/ha, Postemergence) was 1. The “Plant response rating, Cocklebur” value ([3]; Rate 250 g/ha, Preemergence) was 0, the “Plant response rating, Cocklebur” value ([3]; Rate 500 g/ha, Postemergence) was 2 and the “Plant response rating, Cocklebur” value ([3]; Rate 500 g/ha, Preemergence) was 0. The “Plant response rating, Corn” value (corn (Zea mays); [12]) was 0, the “Corn plant response rating” value (corn (Zea mays); Rate 62 g/ha, Postemergence) was 1 and the “Corn plant response rating” value (corn (Zea mays); Rate 125 g/ha, Postemergence) was 1. For the same molecule, the “Plant response rating, Corn” value (corn (Zea mays); Rate 125 g/ha, Preemergence) was 0, the “Plant response rating, Corn” value (corn (Zea mays); Rate 250 g/ha, Postemergence) was 1 and the “Plant response rating, Corn” value (corn (Zea mays); Rate 250 g/ha, Preemergence) was 0. The “Plant response rating, Corn” value (corn (Zea mays); Rate 500 g/ha, Postemergence) was 1, the “Plant response rating, Corn” value (corn (Zea mays); Rate 500 g/ha, Preemergence) was 0 and the “Plant response rating, Crabgrass” value [4, 12] was 0. The “Crabgrass plant response rating” value ([4]; Rate 62 g/ha, Postemergence) was 1, the “Crabgrass plant response rating” value ([4]; Rate 125 g/ha, Postemergence) was 1 and the “Plant response rating, Crabgrass” value ([4]; Rate 125 g/ha, Preemergence) was 0. The “Plant response rating, Crabgrass” value ([4]; Rate 250 g/ha, Postemergence) was 1, the “Plant response rating, Crabgrass” value ([4]; Rate 250 g/ha, Preemergence) was 0 and the “Plant response rating, Crabgrass” value ([4]; Rate 500 g/ha, Postemergence) was 1. For the same molecule, the “Plant response rating, Crabgrass” value ([4]; Rate 500 g/ha, Preemergence) was 0, the “Plant response rating, Giant foxtail” value [5, 12] was 0 and the “Giant foxtail plant response rating” value ([5]; Rate 62 g/ha, Postemergence) was 1. For the same molecule, the “Giant foxtail plant response rating” value ([5]; Rate 125 g/ha, Postemergence) was 1, the “Plant response rating, Giant foxtail” value ([5]; Rate 125 g/ha, Preemergence) was 0 and the “Plant response rating, Giant foxtail” value ([5]; Rate 250 g/ha, Postemergence) was 1. The “Plant response rating, Giant foxtail” value ([5]; Rate 250 g/ha, Preemergence) was 0, the “Plant response rating, Giant foxtail” value ([5]; Rate 500 g/ha, Postemergence) was 1 and the “Plant response rating, Giant foxtail” value ([5]; Rate 500 g/ha, Preemergence) was 0. The “Plant response rating, Morningglory” value [6, 12] was 0, the “Morningglory plant response rating” value ([6]; Rate 125 g/ha, Postemergence) was 1 and the “Plant response rating, Morningglory” value ([6]; Rate 125 g/ha, Preemergence) was 0. The “Plant response rating, Morningglory” value ([6]; Rate 250 g/ha, Postemergence) was 8, the “Plant response rating, Morningglory” value ([6]; Rate 250 g/ha, Preemergence) was 0 and the “Plant response rating, Morningglory” value ([6]; Rate 500 g/ha, Postemergence) was 10. For the same molecule, the “Plant response rating, Morningglory” value ([6]; Rate 500 g/ha, Preemergence) was 5, the “Plant response rating, Redroot pigweed” value [7, 12] was 0 and the “Redroot pigweed plant response rating” value ([7]; Rate 62 g/ha, Postemergence) was 2. The “Redroot pigweed plant response rating” value ([7]; Rate 125 g/ha, Postemergence) was 3, the “Plant response rating, Redroot pigweed” value ([7]; Rate 125 g/ha, Preemergence) was 0 and the “Plant response rating, Redroot pigweed” value ([7]; Rate 250 g/ha, Postemergence) was 6. The “Plant response rating, Redroot pigweed” value ([7]; Rate 250 g/ha, Preemergence) was 0, the “Plant response rating, Redroot pigweed” value ([7]; Rate 500 g/ha, Postemergence) was 7 and the “Plant response rating, Redroot pigweed” value ([7]; Rate 500 g/ha, Preemergence) was 0. The “Plant response rating, Nutsedge” value [8, 12] was 0, the “Nutsedge plant response rating” value ([8]; Rate 62 g/ha, Postemergence) was 0 and the “Nutsedge plant response rating” value ([8]; Rate 125 g/ha, Postemergence) was 0. For the same molecule, the “Plant response rating, Nutsedge” value ([8]; Rate 125 g/ha, Preemergence) was 0, the “Plant response rating, Nutsedge” value ([8]; Rate 250 g/ha, Postemergence) was 0 and the “Plant response rating, Nutsedge” value ([8]; Rate 250 g/ha, Preemergence) was 0. The “Plant response rating, Nutsedge” value ([8]; Rate 500 g/ha, Preemergence) was 0, the “Plant response rating, Soybean” value (soybean (Glycine max); [12]) was 0 and the “Soybean plant response rating” value (soybean (Glycine max); Rate 62 g/ha, Postemergence) was 1. The “Soybean plant response rating” value (soybean (Glycine max); Rate 125 g/ha, Postemergence) was 2, the “Plant response rating, Soybean” value (soybean (Glycine max); Rate 125 g/ha, Preemergence) was 0 and the “Plant response rating, Soybean” value (soybean (Glycine max); Rate 250 g/ha, Postemergence) was 2. For the same molecule, the “Plant response rating, Soybean” value (soybean (Glycine max); Rate 250 g/ha, Preemergence) was 0, the “Plant response rating, Soybean” value (soybean (Glycine max); Rate 500 g/ha, Postemergence) was 2 and the “Plant response rating, Soybean” value (soybean (Glycine max); Rate 500 g/ha, Preemergence) was 0. For the same molecule, the “Plant response rating, Sugarbeets” value [9, 12] was 0, the “Sugarbeets plant response rating” value ([9]; Rate 62 g/ha, Postemergence) was 7 and the “Sugarbeets plant response rating” value ([9]; Rate 125 g/ha, Postemergence) was 7. For the same molecule, the “Plant response rating, Sugarbeets” value ([9]; Rate 125 g/ha, Preemergence) was 0, the “Plant response rating, Sugarbeets” value ([9]; Rate 250 g/ha, Postemergence) was 8 and the “Plant response rating, Sugarbeets” value ([9]; Rate 250 g/ha, Preemergence) was 0. The “Plant response rating, Sugarbeets” value ([9]; Rate 500 g/ha, Postemergence) was 8, the “Plant response rating, Sugarbeets” value ([9]; Rate 500 g/ha, Preemergence) was 0 and the “Plant response rating, Velvetleaf” value [10, 12] was 0. The “Velvetleaf plant response rating” value ([10]; Rate 62 g/ha, Postemergence) was 1, the “Velvetleaf plant response rating” value ([10]; Rate 125 g/ha, Postemergence) was 1 and the “Plant response rating, Velvetleaf” value ([10]; Rate 125 g/ha, Preemergence) was 0. The “Plant response rating, Velvetleaf” value ([10]; Rate 250 g/ha, Postemergence) was 2, the “Plant response rating, Velvetleaf” value ([10]; Rate 250 g/ha, Preemergence) was 0 and the “Plant response rating, Velvetleaf” value ([10]; Rate 500 g/ha, Postemergence) was 2. For the same molecule, the “Plant response rating, Velvetleaf” value ([10]; Rate 500 g/ha, Preemergence) was 1, the “Plant response rating, Wheat” value [11, 12] was 0 and the “Wheat plant response rating” value ([11]; Rate 62 g/ha, Postemergence) was 1. For the same molecule, the “Wheat plant response rating” value ([11]; Rate 125 g/ha, Postemergence) was 1, the “Plant response rating, Wheat” value ([11]; Rate 125 g/ha, Preemergence) was 0 and the “Plant response rating, Wheat” value ([11]; Rate 250 g/ha, Postemergence) was 2. The “Plant response rating, Wheat” value ([11]; Rate 250 g/ha, Preemergence) was 0, the “Plant response rating, Wheat” value ([11]; Rate 500 g/ha, Postemergence) was 2 and the “Plant response rating, Wheat” value ([11]; Rate 500 g/ha, Preemergence) was 0. For the same molecule, the “Plant response rating, Wild oats” value (wild oat (Avena fatua); [12]) was 0, the “Wild oats plant response rating” value (wild oat (Avena fatua); Rate 62 g/ha, Postemergence) was 1 and the “Wild oats plant response rating” value (wild oat (Avena fatua); Rate 125 g/ha, Postemergence) was 1. The “Plant response rating, Wild oats” value (wild oat (Avena fatua); Rate 125 g/ha, Preemergence) was 0, the “Plant response rating, Wild oats” value (wild oat (Avena fatua); Rate 250 g/ha, Postemergence) was 1 and the “Plant response rating, Wild oats” value (wild oat (Avena fatua); Rate 250 g/ha, Preemergence) was 0. The “Plant response rating, Wild oats” value (wild oat (Avena fatua); Rate 500 g/ha, Postemergence) was 1 and the “Plant response rating, Wild oats” value (wild oat (Avena fatua); Rate 500 g/ha, Preemergence) was 0.
